Source: patent publication US7872046B2, “Crystalline form of a (3S)-aminomethyl-5-methyl-hexanoic acid prodrug and methods of use” (Xenoport, Inc., priority 2008, dated 2011)

Legend:
[1] = Pregabalin pharmacokinetics following intracolonic administration in monkeys (Example 12); assay type: in vivo, cynomologus monkeys; conditions: 10 mg-eq PG/kg
Protocol: The pharmacokinetics of pregabalin and crystalline calcium (3S)-{[(1R)-isobutanoyloxyethoxy]carbonylaminomethyl}-5-methyl-hexanoate hydrate following intracolonic administration in monkeys was determined.
A group of four male cynomologus monkeys received an intracolonic dose of pregabalin or crystalline calcium (3S)-{[(1R)-isobutanoyloxyethoxy]carbonylaminomethyl}-5-methyl-hexanoate hydrate (10 mg-eq pregabalin/kg). A 7-day wash-out period was allowed between treatments. Blood samples (300 μL) were collected from all animals prior to dosing and at intervals up to 24 hours post-dosing and immediately quenched in tubes containing K2EDTA to prevent hydrolysis. Two aliquots (100 μL each) were immediately quenched with 300 μL methanol. All quenched blood samples were subsequently analyzed for (3S)-{[(1R)-isobutanoyloxyethoxy]carbonylaminomethyl}-5-methyl-hexanoate free acid and pregabalin using LC-MS/MS.
Pregabalin was obtained from Teva (Peteh Tiqva, Israel). Crystalline calcium (3S)-{[(1R)-isobutanoyloxyethoxy]carbonylaminomethyl}-5-methyl-hexanoate hydrate was synthesized from commercial pregabalin according to Examples 1-6.
Cynomologus monkeys (body weight approximately 2.5 kg to 5.0 kg) were used in the study. Monkeys were fasted overnight and for the first 4 hours after dose administration. Water was provided ad libitum. For intracolonic administration, pregabalin or crystalline calcium (3S)-{[(1R)-isobutanoyloxyethoxy]carbonylaminomethyl}-5-methyl-hexanoate hydrate was suspended in 0.5% methylcellulose/0.1% Tween 80 in sodium phosphate buffer at pH 7.4. Blood samples were analyzed and pharmacokinetic analysis performed as described in Example 14.
(§1) Blood concentration data for all analytes were analyzed by non-compartmental methods using WinNonlin (WinNonlin™ Software, version 5.2, Pharsight Corp. Mountain View, Calif.). Non-compartmental analysis was performed on individual profiles in each animal. All concentration values below the limit of quantitation (BLQ) were treated as 0 (zero) for the pharmacokinetic analysis. Low concentration values at predose were treated as BLQ. Nominal sample collection time points were used for the calculation of pharmacokinetic parameters. All concentration data were plotted using SigmaPlot (SigmaPlot™, Version 9.0, Systat Software Inc., Richmond, Calif.).
(§2) The maximum concentration (Cmax) and time to Cmax(Tmax) were obtained by observation. The apparent elimination half-life (T1/2) was obtained by linear regression of three or more log-transformed data points in the terminal phase. The area under the concentration versus time curve (AUClast) was obtained by the linear trapezoidal method using concentration data up to the last quantifiable concentration. The AUC value extrapolated to infinity (AUCinf) was calculated as: AUCinf=AUClast+Clast/λz where tlast is the time of the last quantifiable concentration (Clast) and λz is the rate constant of the apparent terminal elimination phase.
(§3) The bioavailability (F) of pregabalin after extravascular dosing of pregabalin or prodrug was calculated by comparison to data following intravenous administration of pregabalin as follows: F(%)=100×(AUCex/Doseex)/(AUCiv/Doseiv) where AUCex is the area under the pregabalin concentration versus time curve in μg×hr/mL following extravascular administration of pregabalin or crystalline calcium (3S)-{[(1R)-isobutanoyloxyethoxy]carbonylaminomethyl}-5-methyl-hexanoate hydrate formulation; Doseex is the extravascular dose expressed in mg-equivalents of pregabalin/kg body weight; AUCiv is the area under the pregabalin concentration versus time curve in μg×hr/mL following intravenous administration of pregabalin; and Doseiv is the intravenous dose expressed in mg-equivalents of pregabalin/kg body weight.

[2] = Pregabalin pharmacokinetics following administration of oral tablet formulations in monkeys (Example 14); assay type: in vivo, cynomolgus monkeys
Protocol: One group of four male cynomolgus monkeys was used for the study. The mean body weight was approximately 2.9 kg at the start of the study and increased over the 9 months of the study to approximately 3.4 kg. The animals were fasted overnight and for the first 4 hours of the study after administration of each test formulation. Water was provided ad libitum.
All formulations were evaluated in a single group of four fasted male cynomolgus monkeys with at least 5 days washout between treatments. The IR tablet formulation was administered at 75 mg-eq pregabalin (1 tablet per animal). Three different SR tablet formulations were dosed orally at either 75 mg-eq. pregabalin or 69 mg-eq. pregabalin (1 tablet each per animal).
Blood samples were obtained from all animals at intervals up to 24 hours post-dosing. Approximately 0.3 mL of blood was collected in pre-chilled K2EDTA tubes containing 0.3 mL of methanol. Within 30 minutes, the blood samples were stored at or below −70° C.
Quenched blood samples were frozen and stored at −20° C. prior to analysis. Samples were analyzed by a sensitive and specific LC-MS/MS method for simultaneous determination of (3S)-{[(1R)-isobutanoyloxyethoxy]carbonylaminomethyl}-5-methyl-hexanoate free acid and pregabalin concentrations.
as §1, §2
as §3, with “weight. […]” for “weight.”

[3] = dosed either orally or directly into the colon of a mammal; cited from earlier work
[4] = Hygroscopicity of solid forms; assay type: physicochemical; conditions: solid material
[5] = IR tablet, 75 mg-eq PG (22.4 mg-eq PG/kg)
[6] = SR1 tablet, 75 mg-eq PG (22.3 mg-eq PG/kg)
[7] = SR2 tablet, 69 mg-eq PG (21.1 mg-eq PG/kg)
[8] = SR tablet, 75 mg-eq PG (21.7 mg-eq PG/kg)

CC(C)C[C@H](CN)CC(=O)O [Pregabalin, (3S)-aminomethyl-5-methyl-hexanoic acid]
AUC(0-inf) ([1]; male, monkey, whole blood, 10 mg/kg, read-out: AUCinf, pregabalin in blood, mean (SD)): 3100 ng·h/mL | AUC(0-t) ([1]; male, monkey, whole blood, 10 mg/kg, read-out: AUClast, pregabalin in blood, mean (SD)): 2200 ng·h/mL | Cmax ([1]; male, monkey, whole blood, 10 mg/kg, read-out: Cmax, pregabalin in blood, mean (SD)): 240 ng/mL | half-life ([1]; male, monkey, whole blood, 10 mg/kg, read-out: T1/2, pregabalin in blood, mean (SD) (converted)): 6.15 h | Tmax ([1]; male, monkey, whole blood, 10 mg/kg, read-out: Tmax, pregabalin in blood, mean (SD)): 0.5 h | bioavailability ([1]; male, monkey, whole blood, other: intracolonic, 8 mg/kg, read-out: F, bioavailability of pregabalin relative to IV pregabalin at 8 mg/kg, mean (SD)): 2.7% | F, bioavailability (based on AUClast) relative to AUCinf of intravenous pregabalin at 8 mg/kg, mean (SD) ([2]; LYRICA capsules, 150 mg-eq PG (52.4 mg-eq PG/kg)): 41 (9) % | AUC(0-t) ([2]; male, cynomolgus monkey, whole blood, LYRICA capsules, 150 mg-eq PG (52.4 mg-eq PG/kg), read-out: AUClast, pregabalin in blood, mean (SD)): 188000 ng·h/mL | Cmax ([2]; male, cynomolgus monkey, whole blood, LYRICA capsules, 150 mg-eq PG (52.4 mg-eq PG/kg), read-out: Cmax, pregabalin in blood, mean (SD)): 21900 ng/mL | Tmax ([2]; male, cynomolgus monkey, whole blood, LYRICA capsules, 150 mg-eq PG (52.4 mg-eq PG/kg), read-out: Tmax, pregabalin in blood, mean (SD)): 3 h

CC(C)C[C@H](CNC(=O)OC(C)OC(=O)C(C)C)CC(=O)O (stereo partly drawn) [(1), (3S)-{[1-Isobutanoyloxyethoxy]carbonylaminomethyl}-5-methyl-hexanoic acid]
bioavailability as pregabalin [3]: high bioavailability

calcium (3S)-{[(1R)-isobutanoyloxyethoxy]carbonylaminomethyl}-5-methyl-hexanoate hydrate [(3a)]
AUCinf, pregabalin in blood, mean (SD) [1]: 55.9 (12.1) μg × hr/mL | AUClast, pregabalin in blood, mean (SD) [1]: 54.5 (11.3) μg × hr/mL | Cmax, pregabalin in blood, mean (SD) [1]: 7.54 (1.89) μg/mL | T1/2, pregabalin in blood, mean (SD) [1]: 4.17 (1.15) hr | Tmax, pregabalin in blood, mean (SD) [1]: 0.88 (0.25) hr | hygroscopicity [4]: hygroscopic | AUClast, pregabalin in blood, mean (SD) [2, 5]: 163 (25) μg × hr/mL | Cmax, pregabalin in blood, mean (SD) [2, 5]: 19.3 (2.4) μg/mL | F, bioavailability (based on AUClast) relative to AUCinf of intravenous pregabalin at 8 mg/kg, mean (SD) [2, 5]: 82 (13) % | Tmax, pregabalin in blood, mean (SD) [2, 5]: 2.0 (1.4) hr | AUClast, pregabalin in blood, mean (SD) [2, 6]: 104 (16) μg × hr/mL | Cmax, pregabalin in blood, mean (SD) [2, 6]: 7.2 (1.2) μg/mL | F, bioavailability (based on AUClast) relative to AUCinf of intravenous pregabalin at 8 mg/kg, mean (SD) [2, 6]: 52 (6) % | Tmax, pregabalin in blood, mean (SD) [2, 6]: 8.0 (6.9) hr | AUClast, pregabalin in blood, mean (SD) [2, 7]: 70 (1) μg × hr/mL | Cmax, pregabalin in blood, mean (SD) [2, 7]: 5.0 (0.3) μg/mL | F, bioavailability (based on AUClast) relative to AUCinf of intravenous pregabalin at 8 mg/kg, mean (SD) [2, 7]: 35 (9) % | Tmax, pregabalin in blood, mean (SD) [2, 7]: 14.0 (3.5) hr | AUClast, pregabalin in blood, mean (SD) [2, 8]: 137 (40) μg × hr/mL | Cmax, pregabalin in blood, mean (SD) [2, 8]: 13.5 (3.2) μg/mL | F, bioavailability (based on AUClast) relative to AUCinf of intravenous pregabalin at 8 mg/kg, mean (SD) [2, 8]: 70 (16) % | Tmax, pregabalin in blood, mean (SD) [2, 8]: 3.2 (1.5) hr
